Source: publication PMC11648681, “Development of machine learning models for the prediction of the skin sensitization potential of cosmetic compounds” (PeerJ, 2024)
“And” between values parts separate entries of the source, which are not always exact repeats. Identical values can stand only once. Like-named read-outs stand apart in the source and are kept apart here.

Tests used:
[1] = CCK-8 cell viability of THP-1 cells after 48 h compound treatment in HaCaT/THP-1 co-culture; format: cell-based, human; conditions: human
Experimental: (§1) The co-culture system was set up according to the following described method. […] THP-1 cells were collected, centrifuged, and re-suspended in fresh RPMI-1640 medium supplemented with 10% FBS at 2 × 10^6 cells/mL. Then cells are distributed into HaCaT-seeded 96 wells plate with 80 μL (1.6 × 10^5 cells/well).
(§2) The compounds listed in Table 1 were dissolved in DMSO to create stock solutions with a concentration of 500 mg/mL. Eleven concentrations were subsequently prepared using two-fold serial dilutions. These stock solutions were then further diluted 250-fold in RPMI-1640 + 10% FBS medium. Finally, 80 μL of the prepared solutions were added 1:1 to the treated 96-well plates and incubated for 48 h at 37 °C and 5% CO2.
(§3) After 48 h of treatment, the treated cells were collected 100 μL cells per well. The supernatant medium was added 10 μL of CCK-8 (Life-iLab, Shanghai, China) solution to each well and incubated the plate in the incubator for 2–4 h. THP-1 cell viability was determined using standard calculation methods.
(§4) The cytotoxicity of 15 test compounds listed in Table 1 was assessed using THP-1 cells across a concentration range of 1,000 to 3.9 μg/mL. Cell viability was assessed after 48 h of treatment using the CCK-8 assay.

THP-1 cells = test: as above; format: cell-based, human; conditions: for Cell viability / final concentration used (highest concentration that maintained at least 80% cell viability): 48 h; for IC50 (cytotoxicity): 48 h treatment, CCK-8, range 1,000 to 3.9 μg/mL
Experimental: as §1, §2, §3, §4

[2] = THP-1 cells in co-culture with HaCaT cells, 48 h, THP-1, individual replicate values
[3] = 0.976563 μg/mL, THP-1, individual replicate values
[4] = 1.95312 μg/mL, THP-1, individual replicate values
[5] = 3.90625 μg/mL, THP-1, individual replicate values
[6] = 7.8125 μg/mL, THP-1, individual replicate values
[7] = 15.625 μg/mL, THP-1, individual replicate values
[8] = 62.5 μg/mL, THP-1, individual replicate values
[9] = 125 μg/mL, THP-1, individual replicate values
[10] = 250 μg/mL, THP-1, individual replicate values
[11] = 500 μg/mL, THP-1, individual replicate values
[12] = 1000 μg/mL, THP-1, individual replicate values
[13] = 48 h, THP-1, individual replicate values
[14] = 31.25 μg/mL, THP-1, individual replicate values
[15] = THP-1 cells, CCK-8, single (not double) concentration

| SMILES | viability at 48 h, 31.25 μg/mL ([1]; Cell viability) | viability at 48 h, 0.976563 μg/mL [1, 2] | viability at 48 h, 1.95312 μg/mL [1, 2] | viability at 48 h, 3.90625 μg/mL [1, 2] | viability at 48 h, 7.8125 μg/mL [1, 2] | viability at 48 h, 62.5 μg/mL [1, 2] | viability at 48 h, 125 μg/mL [1, 2] | viability at 48 h, 250 μg/mL [1, 2] | viability at 48 h, 500 μg/mL [1, 2] | viability at 48 h, 1000 μg/mL [1, 2] | Cell viability (THP-1 cells; [3]) | Cell viability (THP-1 cells; [4]) | Cell viability (THP-1 cells; [5]) | Cell viability (THP-1 cells; [6]) | Cell viability (THP-1 cells; [7]) | Cell viability (THP-1 cells; [8]) | Cell viability (THP-1 cells; [9]) | Cell viability (THP-1 cells; [10]) | Cell viability (THP-1 cells; [11]) | Cell viability (THP-1 cells; [12]) | further results |
| --- | --- | --- | --- | --- | --- | --- | --- | --- | --- | --- | --- | --- | --- | --- | --- | --- | --- | --- | --- | --- | --- |
| Sc1nc2ccccc2s1 [2-mercaptobenzothiazole] | 63.3% | 80.2% | 76.6% | 77.2% | 65.9% | 61.4% | 34.2% | 24.8% | 20.8% | 12.9% | 93.5695% | 85.722% | 80.7937% | 76.7668% | 73.0224% | 73.444% | 34.9417% | 27.3318% | 20.0359% | 12.1659% | viability at 48 h, 15.625 μg/mL [1, 2]: 63.3%; Cell viability (THP-1 cells; human, 31.25 μg/mL): 70.7399% |
| C[S+](C)[O-] [DMSO, Dimethyl sulfoxide] | – | – | – | – | – | – | – | – | – | – | 104.048% and 100.267% | 96% and 94.5143% | 96.1619% and 89.1238% | – | – | – | – | – | 86.8476% and 87.3143% | 91.9905% and 89.9048% | IC50 (cytotoxicity) (THP-1 cells; THP-1 cells): greater than 1,000 μg/mL |
| O=[N+]([O-])c1ccc(Cl)c([N+](=O)[O-])c1 [DNCB, 2,4-dinitrochlorobenzene] | – | – | – | – | – | – | – | – | – | – | 95.0987% | 97.1973% | 71.1839% | 7.332% | 7.211% | 9.193% | 8.767% | 9.112% | 10.9865% | 11.5516% | viability at 48 h, 0.976563 μg/mL [1, 13]: 102%; viability at 48 h, 1.95312 μg/mL [1, 13]: 88.2%; viability at 48 h, 3.90625 μg/mL [1, 13]: 75.9%; viability at 48 h, 7.8125 μg/mL [1, 13]: 6.82%; viability at 48 h, 15.625 μg/mL [1, 13]: 6.91%; viability at 48 h, 31.25 μg/mL ([1]; 31.25 μg/mL, 48 h, THP-1, individual replicate values, read-out: Cell viability): 7.1%; viability at 48 h, 62.5 μg/mL [1, 13]: 7.52%; viability at 48 h, 125 μg/mL [1, 13]: 8.76%; viability at 48 h, 250 μg/mL [1, 13]: 11%; viability at 48 h, 500 μg/mL [1, 13]: 13.4%; viability at 48 h, 1000 μg/mL [1, 13]: 19.9%; Cell viability (THP-1 cells; [14]): 7.274% |
| CC(C)O [IPA, Isopropanol] | – | – | – | – | – | – | – | – | – | – | 106.609% and 97.981% | 97.8095% and 92.5429% | 90.3238% and 89.219% | 92.0495% and 89.6476% | 92.1791% and 88.8381% | 91.3838% and 93% | 92.3943% and 110.771% | 91.0095% and 92.9524% | 91.6191% and 88.9333% | 96.9905% and 96.3619% | Cell viability (THP-1 cells; [14]): 92.0943% and 92.7371%; IC50 (cytotoxicity) (THP-1 cells; THP-1 cells): greater than 1,000 μg/mL |
| CCCCCCCCCCCCOS(=O)(=O)[O-].[Na+] [SDS, Sodium dodecyl sulfate] | – | – | – | – | – | – | – | – | – | – | 99.2381% and 110.076% | 92.6381% and 90.6381% | 73.0476% and 93.5333% | 90.7238% and 93.3905% | 95.4381% and 98.4286% | 37.0381% and 32.0952% | 15.5905% and 18.1809% | 15.9333% and 15.6381% | 15.1524% and 16.781% | 14.1809% and 14.2952% | Cell viability (THP-1 cells; [14]): 85.9333% and 91.0762%; final concentration used (highest concentration that maintained at least 80% cell viability) (THP-1 cells; [15]): 31.25 µg/mL |
| CC(C)(C)c1cc(O)ccc1O [THBQ, Tert-butylhydroquinone] | 103% | 95.9% | 94.8% | 97.4% | 117% | 47.1% | 29.9% | 26.6% | 18.8% | 15.2% | 94.8298% | 95.9362% | 101.759% | 103.546% | 101.22% | 47.234% | 34.2837% | 20.1277% | 18.8014% | 15.3191% | viability at 48 h, 15.625 μg/mL [1, 2]: 104%; final concentration used (highest concentration that maintained at least 80% cell viability) (THP-1 cells; [15]): 31.25 µg/mL; Cell viability (THP-1 cells; human, 31.25 μg/mL): 104.716% |
| N#CCCC(Br)(C#N)CBr (stereo not shown) [bromoml, 1,2-dibromo-2,4-dicyanobutane] | 12% | 97% | 97.1% | 100% | 53.3% | 12.2% | 12.2% | 11.9% | 12.9% | 12.4% | 102.88% | 103.993% | 108.767% | 57.1729% | 14.391% | 11.8195% | 12.0752% | – | 12.3985% | 12.3609% | viability at 48 h, 15.625 μg/mL [1, 2]: 13.3%; final concentration used (highest concentration that maintained at least 80% cell viability) (THP-1 cells; [15]): 3.9 µg/mL; Cell viability (THP-1 cells; human, 31.25 μg/mL): 11.782% |
| O=c1c(-c2ccccc2)c1-c1ccccc1 [diphenylcyclopropenone, Diphenylcyclopropenone] | – | 95.4% | 124% | 36.8% | 21.2% | 26.6% | 28.2% | 29.3% | 30.3% | 30.7% | 95.9291% | 135.468% | 42.1135% | 16.9362% | 18.4255% and 40.305% | 19.5248% | 23.4184% | 23.9858% | 31.4681% | 33.1277% | viability at 48 h, 31.25 μg/mL ([1]; THP-1 cells in co-culture with HaCaT cells, 31.25 μg/mL, 48 h, THP-1, individual replicate values, read-out: Cell viability): 25.4%; Cell viability (THP-1 cells; [14]): 15.5674%; final concentration used (highest concentration that maintained at least 80% cell viability) (THP-1 cells; [15]): 0.98 µg/mL |
| C=CCc1ccc(O)c(OC)c1 [eugenol, Eugenol] | 89.2% | – | – | – | – | – | – | – | – | – | 95.2766% | 82.8227% | 95.5106% | 87.9007% | 89.6454% | 83.0993% | 50.2837% | 13.5816% | 12.3688% | 8.652% and 19.4894% | viability at 48 h, 0.976563 μg/mL [1, 13]: 96.1%; viability at 48 h, 1.95312 μg/mL [1, 13]: 85.9%; viability at 48 h, 3.90625 μg/mL [1, 13]: 94%; viability at 48 h, 7.8125 μg/mL [1, 13]: 89.2%; viability at 48 h, 15.625 μg/mL [1, 13]: 84%; viability at 48 h, 62.5 μg/mL [1, 13]: 96.6%; viability at 48 h, 125 μg/mL [1, 13]: 54.7%; viability at 48 h, 250 μg/mL [1, 13]: 13.4%; viability at 48 h, 500 μg/mL [1, 13]: 19.5%; final concentration used (highest concentration that maintained at least 80% cell viability) (THP-1 cells; human): 31.2 µg/mL; Cell viability (THP-1 cells; human, 31.25 μg/mL): 101.56% |
